Measured values reported in article PMC11910216, “Targeting ubiquitin-independent proteasome with small molecule increases susceptibility in pan-KRAS–mutant cancer models” (The Journal of Clinical Investigation, 2025).
Several values for one entry are separate records, joined by “and”; a condition that tells them apart may be missing. Equal values may be shown once.

Experiments:
HCT116-REGγ-KO cells = assay: Cell viability assay (CCK-8); type: cell-based; conditions: Homo sapiens, Figure 5F
Protocol: (§2) Cells were seeded into 96-well plates at a density of 1,500 cells per well. Cells were then cultivated at 37°C for different periods (0 hours, 24 hours, 48 hours, 72 hours, 96 hours). Upon measurement, 10 μL CCK-8 (Yeasen, 40203ES80) mixed with 100 μL serum-free medium was added to each well and incubated for 1 hour at 37°C. Plates were shaken, and optical density values were determined at 450 nm using a microplate reader (BioTek, Synergy Neo2).

HCT116-shREGγ cells = assay: Colony formation assay; type: cell-based, human; conditions: for relative colony formation: HCT116-KO
Protocol: (§1) Cells were equally seeded into 12-well plates at a density of 2,000 cells per well. Cultivated for 6–10 days, cells were fixed with 4% polyoxymethylene and stained with 0.2% crystal violet. Images of stained colonies were taken, and the numbers of the colonies were recorded and compared within different groups. Each experiment was representative of at least 3 independent experiments.

HCT116-WT cells = assay: Colony formation assay; type: cell-based, human
Protocol: as §1

Calu1 cells = assay: Colony formation assay; type: cell-based, human
Protocol: as §1

20S proteasome = 20S proteasome (Homo sapiens, UniProt P25786+P25788); assay: Surface plasmon resonance assay (Biacore T200); type: binding; conditions: steady-state affinity model (1:1)
Protocol: Surface plasmon resonance–based ligand binding assays were performed using a Biacore T200 system (GE Healthcare Life Sciences). 20S proteasome was diluted with acetate ([…]) and conjugated to a Series S Sensor Chip CM5 (GE Healthcare Life Sciences, BR100530) by EDC/NHS cross-linking reaction according to the manufacturer’s protocols. The target immobilization level of protein was 25 RU. The small molecule RLY01 was diluted with a running buffer containing 5% DMSO from 0.125 to 64 μM, and was injected into the reference channel and 20S proteasome channel, respectively, at a flow rate of 30 μL/min. The coupling and dissociation times were both 120 seconds. Biacore T200 evaluation software was used to fit the affinity curves by the steady-state affinity model (1:1), and the equilibrium dissociation constant (KD) was calculated.

[1] = system: RLY01 binding proteins in whole-cell lysates; assay: Biotin-RLY01 pulldown mass spectrometry
Protocol: Cell lysates were incubated with free biotin (MedChemExpress) or biotin-RLY01 for 3 hours at room temperature with rotation. Subsequently, the prewashed streptavidin agarose beads (Yeasen Biotech) were added to the system as above and incubated 1 hour at room temperature with rotation. The beads were washed 3 times with […] and then were boiled in SDS loading buffer, followed by Western blotting.
LC-MS/MS–based proteomics analysis was conducted in collaboration with Shanghai Applied Protein Technology Co. Ltd. According to the methods described for streptavidin-biotin affinity pull-down assay, biotin-RLY01 was used to pull down target proteins from the whole-cell lysates. SDS-PAGE gels were stained with Silver Staining kits (Beyotime, P0017S). The entire gel was cut into pieces at the target sites (Supplemental Figure 6F, black arrows), which were destained, reduced, and alkylated, followed by trypsin digestion. The digested peptides were extracted, resuspended in 0.1% formic acid, and analyzed by LC-MS/MS on a Q-Exactive mass spectrometer (Thermo Electron). The raw MS data for each sample were combined and searched using MaxQuant 1.6.14 software for identification and quantitation analysis. The minimal scores for peptide and protein were set as 20 and 50, respectively. The FDR was set to 0.01 for analysis.

Pharmacokinetics study = type: in vivo; conditions: plasma, 20 mg/kg single i.p. dose, male BALB/c mice
Protocol: Pharmacokinetics of RLY01 was analyzed in male BALB/c mice (n = 3). Plasma concentration was determined using liquid chromatography–tandem mass spectrometry (LC-MS/MS) after a single intraperitoneal injection dose (20 mg/kg, i.p.) of a compound as a clear solution (2% DMSO plus 2% Tween-80 plus 96% saline) at a volume of 10 mL/kg. Blood samples were collected into a heparinized test tube at each time point (0.083, 0.25, 0.5, 1.0, 2.0, 4.0, 8.0, and 24 hours) and centrifuged at 8,000g for 10 minutes to generate plasma samples. The blood samples were temporarily put on ice. Plasma samples were put on dry ice for 2 hours and transferred to –20°C. After the completion of the last sampling, all samples were stored at –80°C. LC-MS/MS methods to quantify compound in plasma samples were developed. The samples were analyzed with an Agilent 1290 Infinity II HPLC system coupled to a 6470 LC/TQ mass spectrometer (Agilent), which was equipped with an Applied Biosystems electrospray ionization source and operated with Analysis of Mass Hunter Workstation Data Acquisition (Agilent). Chromatographic separation was fitted with an Agilent Poroshell 120 EC-C18, 2.1 × 50 mm, 1.9 μm column. The mobile phase consisted of 0.1% formic acid in water and 0.1% formic acid in acetonitrile (ACN). Standard curves for drug quantification were prepared by spiking known concentrations of the compound into control plasma. […]

921 cells = assay: Cell viability assay (CCK-8); type: cell-based; conditions: 921, Bladder; Supplemental Table 4
Protocol: as §2

[2] = molecular target: REGα-activated 20S proteasome (Homo sapiens, UniProt P25786+P25788); assay: Peptidyl substrate LLVY/LRR degradation assay, REGα-activated 20S proteasome; type: biochemical; conditions: 20S REGα
Protocol: The reaction mixture contained the indicated combinations of 20S proteasome (0.125 μg), 11S (0.0625 μg), and RLY01 (20 μM). This mixture was incubated on ice for 45 minutes in buffer (10 mM Tris-HCl, 10 mM KCl, 4% glycerol, 1 mM DTT). Then, peptidyl substrates (Suc-LLVY-AMC/Boc-LRR-AMC) were incubated for 15–20 minutes in the mixture in a 37°C thermostatic fluorescence spectrophotometer. The amount of AMC during the reaction was measured fluorometrically (excitation of 360 nm and emission of 460 nm for AMC) with a fluorescence spectrophotometer. Proteasome activity was assayed in the presence of the indicated peptides and proteins and normalized by setting to 100% the value obtained in the presence of 20S proteasome and 11S. The respective final concentrations of the 20S proteasome and REGγ or REGα were set up so that the peptidase activities were not fully activated (i.e., 11S was limiting in the assay). At the final concentration used for RLY01, the inhibitory effect was maximal. Peptides used were substrates of the following peptidase activities of the 20S proteasome: chymotrypsin-like activity, Suc-LLVY-AMC (LLVY); trypsin-like activity, Boc-LRR-AMC (LRR).

H358 cells = assay: Cell viability assay (CCK-8); type: cell-based; conditions: Homo sapiens, NCI-H358; H358 (KRAS-MUT); 72 hours
Protocol: as §2

[3] = protein PSMA7 (α7), sample A_1 (sample groups not given)
[4] = protein PSMA7 (α7), sample A_2 (sample groups not given)
[5] = protein PSMA7 (α7), sample B_1 (sample groups not given)
[6] = protein PSMA7 (α7), sample B_2 (sample groups not given)

Structure (SMILES): COc1ccc(C2C(C#N)=C(N)Oc3[nH]ncc32)cc1COc1ccc(Cl)cc1 (stereo not drawn) [RLY01]
- IC50 (HCT116-REGγ-KO cells): 103 µM
- relative colony formation (HCT116-shREGγ cells; High): 0.122 and 0.142 and 0.104
- relative colony formation (HCT116-shREGγ cells; Low): 0.118 and 0.141 and 0.078
- clonogenic growth suppression (HCT116-shREGγ cells; HCT116-shREGγ versus HCT116-WT): reversed by REGγ silencing
- relative colony formation (HCT116-WT cells; High): 0.324 and 0.59 and 0.485
- relative colony formation (HCT116-WT cells; Low): 0.846 and 0.917 and 0.708
- colony formation relative to DMSO (Calu1 cells): 30.0518 and 30.7995 and 28.24
- Kd (20S proteasome): 11.6 µM
- protein precipitated by biotin-RLY01 (mass spectrometry) [1]: effectively precipitated α7
- iBAQ ([1]; protein PSMA7 (α7) in RLY01 pulldown mass spectrum, over all samples): 23968000
- Intensity A_1 [1, 3]: 17989000
- iBAQ A_1 [1, 3]: 1284900
- Intensity A_2 [1, 4]: 2996300
- iBAQ A_2 [1, 4]: 214020
- Intensity B_1 [1, 5]: 259310000
- iBAQ B_1 [1, 5]: 18522000
- Intensity B_2 [1, 6]: 55262000
- iBAQ B_2 [1, 6]: 3947300
- Intensity ([1]; protein PSMA7 (α7, Proteasome subunit alpha type-7) in RLY01 pulldown mass spectrum, sum over samples): 335560000
- half-life (Pharmacokinetics study; mouse, ip): 4.14 h
- maximum concentration (Pharmacokinetics study): 6,440 ng/mL
- IC50 (921 cells): 7.38 µM
- LLVY Activity(%) [2]: 92.6533% and 97.2289% and 95.2129%
- IC50 (H358 cells): 11.6 µM
